Reference: patent publication US20040146519A1, “Inducing cellular immune responses to carcinoembryonic antigen using peptide and nucleic acid compositions” (priority 2002, published 2004)
Where no end group is shown, it is not given here.

Legend:
HLA-A*3301 = HLA-A*3301 (Homo sapiens, UniProt P04439, A270S/D185E/E176V/E277Q/E87N/F33T/G231S/H175R/I121M/I218V/I322F/K168Q/K210R/L300P/L318F/M331R/P217A/Q86R/Q94H/R138Q/T323A/T345S/T97I/V358M/Y195H); assay: HLA class I binding assay, purified HLA-A*3301; settings: Table XXIII, binding affinity
HLA-A*6801 = HLA-A*6801 (Homo sapiens, UniProt P04439, A269V/D185E/E176V/E277Q/E87N/F33Y/G231S/I121M/I166T/I218V/L180W/L300P/L318F/N151K/P208A/P217A/Q86R/R169H/T345S); assay: HLA class I binding assay, purified HLA-A*6801; settings: Table XXIII, binding affinity
HLA-A*3101 = HLA-A*3101 (Homo sapiens, UniProt P04439, A270S/D185E/E176V/E277Q/F33T/G231S/G80R/H175R/I121M/I218V/I322F/K168Q/L300P/L318F/M331R/P217A/Q94H/R138Q/T323A/T345S/T97I/V358M); assay: HLA class I binding assay, purified HLA-A*3101; settings: Table XXIII, binding affinity
HLA-A*1101 = HLA-A*1101 (Homo sapiens, UniProt P04439, A114D/D185E/E176A/F33Y/L180Q/S129P/T187R); assay: HLA class I binding assay, purified HLA-A*1101; settings: Table XXIII, binding affinity
HLA-A*0201 = HLA-A*0201 (Homo sapiens, UniProt P04439, D140Y/D185E/D98H/E176V/E277Q/G131W/G231S/I119V/I121R/I166T/I218V/L300P/L318F/N151K/N90K/P208A/P217A/Q86G/Q94H/R138H/R169H/T345S); assay: HLA class I binding assay, purified HLA-A*0201; settings: Table XXII, binding affinity
HLA-A*6802 = HLA-A*6802 (Homo sapiens, UniProt P04439, A269V/D140Y/D185E/E176V/E277Q/E87N/F33Y/G231S/I121R/I166T/I218V/L180W/L300P/L318F/N151K/P208A/P217A/Q86R/R138H/R169H/S129P/T345S/V36M); assay: HLA class I binding assay, purified HLA-A*6802; settings: Table XXII, binding affinity
HLA-A*0202 = HLA-A*0202 (Homo sapiens, UniProt P04439, D140Y/D185E/D98H/E176V/E277Q/G131W/G231S/I119L/I121R/I166T/I218V/L180W/L300P/L318F/N151K/N90K/P208A/P217A/Q67R/Q86G/Q94H/R138H/R169H/T345S); assay: HLA class I binding assay, purified HLA-A*0202; settings: Table XXII, binding affinity
HLA-A*0203 = HLA-A*0203 (Homo sapiens, UniProt P04439, A173T/D140Y/D185E/D98H/E277Q/G131W/G231S/I119V/I121R/I166T/I218V/L180W/L300P/L318F/N151K/N90K/P208A/P217A/Q86G/Q94H/R138H/R169H/T345S); assay: HLA class I binding assay, purified HLA-A*0203; settings: Table XXII, binding affinity
HLA-A*0206 = HLA-A*0206 (Homo sapiens, UniProt P04439, D140Y/D185E/D98H/E176V/E277Q/F33Y/G131W/G231S/I119V/I121R/I166T/I218V/L300P/L318F/N151K/N90K/P208A/P217A/Q86G/Q94H/R138H/R169H/T345S); assay: HLA class I binding assay, purified HLA-A*0206; settings: Table XXII, binding affinity

IC50 (HLA-A*3301) | IC50 (HLA-A*6801) | IC50 (HLA-A*3101) | IC50 (HLA-A*1101) | IC50 (HLA-A*0201) | IC50 (HLA-A*6802) | IC50 (HLA-A*0202) | IC50 (HLA-A*0203) | IC50 (HLA-A*0206) | Compound
4330 nM | 22 nM | 720 nM | – | – | – | – | – | – | CC[C@H](C)[C@H](N)C(=O)N[C@H](C(=O)N1CCC[C@H]1C(=O)N[C@@H](CO)C(=O)N[C@@H](Cc1ccc(O)cc1)C(=O)N[C@H](C(=O)N[C@@H](Cc1ccc(O)cc1)C(=O)N[C@@H](Cc1ccc(O)cc1)C(=O)N[C@@H](CCCCN)C(=O)O)[C@@H](C)O)C(C)C [CEA.420.V2K9]
> 10000 nM | 6.7 nM | 3670 nM | 43 nM | – | – | – | – | – | CC(C)[C@H](NC(=O)[C@@H](N)[C@@H](C)O)C(=O)N[C@@H](CO)C(=O)N1CCC[C@H]1C(=O)N[C@@H](CO)C(=O)N[C@@H](Cc1ccc(O)cc1)C(=O)N[C@H](C(=O)N[C@@H](Cc1ccc(O)cc1)C(=O)N[C@@H](Cc1ccc(O)cc1)C(=O)N[C@@H](CCCCN)C(=O)O)[C@@H](C)O [CEA.419.V2K10]
– | – | – | – | 22 nM | 160 nM | 8 nM | 3.2 nM | – | CC[C@H](C)[C@H](N)C(=O)N[C@@H](CC(C)C)C(=O)N[C@H](C(=O)NCC(=O)N[C@H](C(=O)N[C@@H](CC(C)C)C(=O)N[C@H](C(=O)NCC(=O)N[C@H](C(=O)O)C(C)C)C(C)C)C(C)C)[C@@H](C)CC [CEA.691L2]
– | – | – | – | 64 nM | 500 nM | 205 nM | 31 nM | 142 nM | CC[C@H](C)[C@H](NC(=O)CN)C(=O)N[C@@H](CCSC)C(=O)N[C@H](C(=O)NCC(=O)N[C@H](C(=O)N[C@@H](CC(C)C)C(=O)N[C@H](C(=O)NCC(=O)N[C@H](C(=O)O)C(C)C)C(C)C)C(C)C)[C@@H](C)CC [CEA.690]
– | – | – | – | 10 nM | 102 nM | 63 nM | 31 nM | 100 nM | CC[C@H](C)[C@H](NC(=O)CNC(=O)[C@@H](NC(=O)[C@H](CC(C)C)NC(=O)[C@H](C)N)C(C)C)C(=O)N[C@@H](CCSC)C(=O)N[C@H](C(=O)NCC(=O)N[C@H](C(=O)O)C(C)C)[C@@H](C)CC [CEA.687L2]
> 10000 nM | 5710 nM | 164 nM | – | – | – | – | – | – | CC(C)C[C@H](NC(=O)[C@H](CC(C)C)NC(=O)[C@@H](NC(=O)[C@H](CC(C)C)NC(=O)[C@@H](NC(=O)[C@@H](N)CCCNC(=N)N)C(C)C)[C@@H](C)O)C(=O)N[C@@H](CO)C(=O)N[C@H](C(=O)N[C@H](C(=O)N[C@@H](CCCCN)C(=O)O)[C@@H](C)O)C(C)C [CEA.376.V2K10]
> 10000 nM | 7.3 nM | > 10000 nM | 6 nM | – | – | – | – | – | TVSPLNTSYK [CEA.241.V2K10]
– | – | – | – | – | 3480 nM | 24 nM | – | 31 nM | CC[C@H](C)[C@H](NC(=O)CNC(=O)[C@H](CS)NC(=O)[C@H](CC(C)C)NC(=O)[C@@H](N)Cc1ccc(O)cc1)C(=O)N[C@@H](CCC(N)=O)C(=O)N[C@@H](CC(N)=O)C(=O)N[C@@H](CO)C(=O)N[C@H](C(=O)O)C(C)C [CEA.569L2]
> 10000 nM | 5.3 nM | > 10000 nM | 207 nM | – | – | – | – | – | CC(C)C[C@H](NC(=O)[C@H](CC(N)=O)NC(=O)[C@H](CO)NC(=O)[C@@H](NC(=O)[C@@H](N)Cc1ccccc1)C(C)C)C(=O)N[C@@H](C)C(=O)N[C@H](C(=O)NCC(=O)N[C@@H](CCCCN)C(=O)O)[C@@H](C)O [CEA.656.K9]
> 10000 nM | 2350 nM | 234 nM | 32 nM | – | – | – | – | – | CC(C)C[C@H](NC(=O)[C@@H](NC(=O)[C@@H](N)CCCNC(=N)N)C(C)C)C(=O)N[C@H](C(=O)N[C@@H](CC(C)C)C(=O)N[C@@H](Cc1ccccc1)C(=O)N[C@@H](CC(N)=O)C(=O)N[C@H](C(=O)N[C@H](C(=O)N[C@@H](CCCCN)C(=O)O)[C@@H](C)O)C(C)C)[C@@H](C)O [CEA.554.V42K10]
– | – | – | – | – | 2.3 nM | 5.9 nM | 2.3 nM | – | CC[C@H](C)[C@H](NC(=O)[C@H](CC(C)C)NC(=O)[C@@H](N)CCC(N)=O)C(=O)NCC(=O)N[C@@H](Cc1ccc(O)cc1)C(=O)N[C@H](C(=O)N[C@H](C(=O)NCC(=O)N[C@H](C(=O)O)C(C)C)[C@@H](C)CC)C(C)C [CEA.78L2V9]
